According to patent US11225645B2 (priority 2002, dated 2022):
Entries after “also recorded” stand apart in the source; their conditions may differ. Where two headings read alike, the source gives them in different places.

Columns and labels:
[1] = test system: coenzyme-binding glucose dehydrogenase; assay: Substrate specificity and Km value, Enzymatic activity measurement method 1; format: biochemical, Aspergillus terreus
Description: Employing each of D-glucose and other substrates (each at 333 mM as a final concentration, except for D-cellobiose at 193 mM, D-trehalose and D-raffinose at 121 mM), the enzymatic activity of this enzyme was measured by the Enzymatic activity measurement method 1. The activity on each substrate is represented as a relative value to the activity of this enzyme on D-glucose being regarded as 100%, and shown in Table 1.
Similarly, the relative reactivities (enzymatic activity) on D-glucose and maltose each at two final concentrations, i.e. 550 mM and 100 mM, were measured. The results are represented as relative values based on the value on D-glucose.

[2] = test system: coenzyme-binding glucose dehydrogenase; assay: Inhibitor test, additives added to Enzymatic activity measurement method 1; format: biochemical, Aspergillus terreus
[3] = biological target: glucose dehydrogenase whose coenzyme is the pyrroloquinolinequinone derived from Gluconobacter suboxydans (Gluconobacter oxydans, UniProt P27175); conditions: relative to glucose = 100%; cited from earlier work
glucose dehydrogenase whose coenzyme is the pyrroloquinolinequinone derived from Gluconobacter suboxydans, sequence (P27175 34-808): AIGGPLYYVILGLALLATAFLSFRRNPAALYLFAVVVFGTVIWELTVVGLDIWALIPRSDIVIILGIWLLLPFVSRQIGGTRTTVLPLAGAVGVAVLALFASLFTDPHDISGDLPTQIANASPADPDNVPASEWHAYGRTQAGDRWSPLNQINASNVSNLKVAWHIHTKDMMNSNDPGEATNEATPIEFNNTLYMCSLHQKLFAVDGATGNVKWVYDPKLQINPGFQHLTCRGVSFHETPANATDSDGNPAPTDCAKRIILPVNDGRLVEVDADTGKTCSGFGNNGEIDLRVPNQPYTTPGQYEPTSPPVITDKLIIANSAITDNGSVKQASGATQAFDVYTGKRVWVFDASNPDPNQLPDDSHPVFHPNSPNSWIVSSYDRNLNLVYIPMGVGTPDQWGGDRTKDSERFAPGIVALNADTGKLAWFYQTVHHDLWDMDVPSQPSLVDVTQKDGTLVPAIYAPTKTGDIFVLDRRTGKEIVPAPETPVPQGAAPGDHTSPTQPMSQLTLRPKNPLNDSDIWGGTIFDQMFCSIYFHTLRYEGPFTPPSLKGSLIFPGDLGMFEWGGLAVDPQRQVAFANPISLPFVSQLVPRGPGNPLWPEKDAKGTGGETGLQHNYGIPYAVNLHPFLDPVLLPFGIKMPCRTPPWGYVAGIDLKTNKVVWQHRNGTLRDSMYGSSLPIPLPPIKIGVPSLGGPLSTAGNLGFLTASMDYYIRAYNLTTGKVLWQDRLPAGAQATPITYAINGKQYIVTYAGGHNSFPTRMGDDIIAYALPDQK

[4] = biological target: glucose dehydrogenase whose coenzyme is the pyrroloquinolinequinone derived from Escherichia coli (Escherichia coli, UniProt P15877); conditions: relative to glucose = 100%; cited from earlier work
glucose dehydrogenase whose coenzyme is the pyrroloquinolinequinone derived from Escherichia coli, sequence (P15877 whole entry): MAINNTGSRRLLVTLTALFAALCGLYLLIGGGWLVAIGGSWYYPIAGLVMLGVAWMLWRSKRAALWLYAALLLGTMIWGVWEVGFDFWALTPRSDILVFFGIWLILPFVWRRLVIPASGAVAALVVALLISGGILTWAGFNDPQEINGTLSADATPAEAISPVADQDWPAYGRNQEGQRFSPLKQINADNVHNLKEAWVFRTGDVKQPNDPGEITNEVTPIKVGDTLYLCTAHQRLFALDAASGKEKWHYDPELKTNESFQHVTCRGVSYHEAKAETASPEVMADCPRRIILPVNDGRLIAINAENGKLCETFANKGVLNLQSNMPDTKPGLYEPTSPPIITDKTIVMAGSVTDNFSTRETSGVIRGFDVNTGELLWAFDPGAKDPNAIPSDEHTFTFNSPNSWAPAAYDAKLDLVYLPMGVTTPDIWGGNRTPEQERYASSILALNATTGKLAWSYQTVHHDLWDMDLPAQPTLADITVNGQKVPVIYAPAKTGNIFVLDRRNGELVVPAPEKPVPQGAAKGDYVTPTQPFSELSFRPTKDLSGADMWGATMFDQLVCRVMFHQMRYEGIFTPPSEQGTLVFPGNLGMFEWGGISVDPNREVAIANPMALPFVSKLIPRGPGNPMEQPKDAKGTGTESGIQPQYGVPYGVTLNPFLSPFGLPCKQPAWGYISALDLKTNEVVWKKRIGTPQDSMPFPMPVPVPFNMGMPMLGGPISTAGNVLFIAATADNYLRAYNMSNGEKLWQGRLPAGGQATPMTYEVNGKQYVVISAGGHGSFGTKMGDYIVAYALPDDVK

[5] = test system: glucose dehydrogenase whose coenzyme is the pyrroloquinolinequinone derived from Pseudomonas sp.; conditions: relative to glucose = 100%; cited from earlier work
[6] = test system: glucose dehydrogenase whose coenzyme is a flavin adenine dinucleotide of Aspergillus oryzae; conditions: cited from earlier work
[7] = substrate 121 mM final, activity on D-glucose = 100%
[8] = additive 1 mM final concentration
[9] = substrate 333 mM final, activity on D-glucose = 100%
[10] = substrate final conc. 100 mM, D-glucose = 100%
[11] = substrate final conc. 550 mM, D-glucose = 100%

Compound | Activity of the enzyme on the substrate (in words) ([1]; summary of Tables 1 and 2) | Inhibition (%) [2, 8] [%] | Inhibition (%) [2] [%] | further results
OC[C@H]1O[C@H](OC[C@H]2O[C@H](O[C@]3(CO)O[C@H](CO)[C@@H](O)[C@@H]3O)[C@H](O)[C@@H](O)[C@@H]2O)[C@H](O)[C@@H](O)[C@H]1O [D-Raffinose] | Almost no activity; also recorded: almost no effect |  |  | Relative activity (%) [1, 7]: 0.1> %
CCN(CC)CCCC(C)Nc1c2ccc(Cl)cc2nc2ccc(OC)cc12 (stereo not shown) [Quinacrine] |  | 5.0 |  | 
NCCS [Cysteamine] |  | 9.8 |  | 
OC[C@H]1O[C@H](O[C@H]2[C@H](O)[C@@H](O)[C@H](O)O[C@@H]2CO)[C@H](O)[C@@H](O)[C@@H]1O [Maltose] | lower activity; also recorded: weakly |  |  | Relative activity (%) [1, 9]: 1.4%; Relative activity (%) [1, 10]: 0.5%; Relative activity (%) [1, 11]: 2.8%; Activity on maltose [3]: 5%; Activity on maltose [4]: 3%; Activity on maltose [5]: 3.2%
O=C[C@H](O)[C@@H](O)[C@H](O)[C@H](O)CO [D-Glucose] | higher activity; also recorded: potently |  |  | Km [1]: 49.7 mM; Relative activity (%) [1, 9]: 100%; Relative activity (%) [1, 10]: 100%; Relative activity (%) [1, 11]: 100%
OC[C@H]1O[C@H](O[C@H]2O[C@H](CO)[C@@H](O)[C@H](O)[C@H]2O)[C@H](O)[C@@H](O)[C@@H]1O [D-Trehalose] | lower activity; also recorded: weakly |  |  | Relative activity (%) [1, 7]: 1.7%
[Cl-].[Cl-].[Mg+2] [MgCl2] |  |  | 2.8 | 
O=C[C@H](O)[C@H](O)[C@H](O)CO [D-Ribose] | Almost no activity; also recorded: almost no effect |  |  | Relative activity (%) [1, 9]: 0.1> %
CC(C)(S)C(N)C(=O)O (racemic) [DL-Penicillamine] |  | 4.3 |  | 
Oc1cccc2cccnc12 [8-Quinolinol] |  |  | 13.9 | 
[Cl-].[Cl-].[Zn+2] [ZnCl2] |  |  | 0 | 
O=C(O)[C@H](O)[C@@H](O)[C@H](O)[C@H](O)CO [Gluconic acid] |  |  |  | Activity of the enzyme on the substrate (in words) [1]: Almost no activity; also recorded: almost no effect; Relative activity (%) [1]: 0.1> %
O=CC[C@@H](O)[C@H](O)[C@H](O)CO [2-Deoxy-D-glucose] |  |  |  | Relative activity (%) [1, 9]: 48%
[Ba+2].[Cl-].[Cl-] [BaCl2] |  | 2.6 |  | 
OC[C@H]1O[C@@H](O[C@H]2[C@H](O)[C@@H](O)C(O)O[C@@H]2CO)[C@H](O)[C@@H](O)[C@H]1O (stereo partly shown) [Lactose] | Almost no activity; also recorded: almost no effect |  |  | Relative activity (%) [1, 9]: 0.1> %
[Cl][Cd][Cl] [CdCl2] |  |  | 0.8 | 
O=C[C@H](O)[C@@H](O)[C@H](O)CO [D-Xylose] |  |  |  | Relative activity (%) [1, 9]: 9.1%
c1ccc(-c2ccccn2)nc1 [2,2′-Bipyridine] |  | 10.8 |  | 
OC[C@H]1OC[C@H](O)[C@@H](O)[C@@H]1O [1,5-Anhydro-D-glucitol] | lower activity; also recorded: weakly |  |  | Relative activity (%) [1, 9]: 2%
OC[C@@H](O)[C@@H](O)[C@H](O)[C@H](O)CO [D-Mannitol] | Almost no activity; also recorded: almost no effect |  |  | Relative activity (%) [1, 9]: 0.1> %
O=C[C@H](O)[C@@H](O)[C@@H](O)CO [L-Arabinose] | Almost no activity; also recorded: almost no effect |  |  | Relative activity (%) [1, 9]: 0.1> %
[Ca+2].[Cl-].[Cl-] [CaCl2] |  |  | 5.7 | 
c1cnc2c(c1)ccc1cccnc12 [1,10-Phenanthroline] |  | 62.0 |  | Inhibitory effect ([2]; 1 mM final concentration, methanol 10% (v/v)): 62.0%; Inhibit (%) ([2]; 5 mM final concentration, methanol 10% (v/v)): 76%; Inhibit (%) ([2]; 10 mM final concentration, methanol 10% (v/v)): 85%; Inhibit (%) ([2]; 25 mM final concentration, methanol 10% (v/v)): 91%; Inhibit (%) ([2]; 50 mM final concentration, methanol 10% (v/v)): 95%; Inhibition (in words) [6]: not inhibited

Compound | Activity of the enzyme on the substrate (in words) ([1]; summary of Tables 1 and 2) | Inhibition (%) [2, 8] [%] | Inhibition (%) [2] [%] | further results
O=C(O)CN(CCN(CC(=O)O)CC(=O)O)CC(=O)O [EDTA] |  |  | 0.4 | 
[N-]=[N+]=[N-].[Na+] [NaN3] |  |  | 0 | 
O=C(CO)[C@@H](O)[C@H](O)[C@H](O)CO [D-Fructose] | lower activity; also recorded: weakly |  |  | Relative activity (%) [1, 9]: 0.86%
N[C@@H]1CON=C1O [Cycloserine] |  | 3.6 |  | 
NN=C(N)N.O=S(=O)(O)O [Aminoguanidine sulfate] |  |  | 1.1 | 
OC[C@H]1O[C@@H](O[C@H]2[C@H](O)[C@@H](O)[C@H](O)O[C@@H]2CO)[C@H](O)[C@@H](O)[C@@H]1O [D-Cellobiose] | lower activity; also recorded: weakly |  |  | Relative activity (%) ([1]; substrate 193 mM final, activity on D-glucose = 100%): 2%
CC(O)C(=O)O.CCOc1ccc2nc3cc(N)ccc3c(N)c2c1 [Acrinol] |  | 29.0 |  | 
[Cl][Cu][Cl] [CuCl2] |  |  | 100 | Inhibitory effect (in words) [2]: highest; also recorded: inhibited potently
[Cl][Sn][Cl] [SnCl2] |  |  | 45.5 | 
Nc1ccc2cc3ccc(N)cc3nc2c1 [Proflavin] |  | 62.0 |  | 
C[C@H](O)[C@H](O)[C@@H](O)[C@@H](O)C=O [L-Rhamnose] | Almost no activity; also recorded: almost no effect |  |  | Relative activity (%) [1, 9]: 0.1> %
O=C[C@@H](O)[C@@H](O)[C@H](O)[C@H](O)CO [D-Mannose] | lower activity; also recorded: weakly |  |  | Relative activity (%) [1, 9]: 2.8%
O=C(O)CI [Iodoacetic acid] |  |  | 9.5 | 
OCC(O)CO [Glycerol] | Almost no activity; also recorded: almost no effect |  |  | Relative activity (%) [1, 9]: 0.1> %
O=[N+]([O-])[O-].[Ag+] [AgNO3] |  |  | 99.4 | Inhibitory effect (in words) [2]: highest; also recorded: inhibited potently
O=C(O)c1ccccc1[N+](=O)[O-] [2-Nitrobenzoic acid] |  | 44.3 |  | 
O=C[C@H](O)[C@@H](O)[C@H](O)[C@H](O)COP(=O)(O)O [D-Glucose-6-phosphate] | lower activity; also recorded: weakly |  |  | Relative activity (%) [1, 9]: 1.1%
[Cl][Hg][Cl] [HgCl2] |  | 100 |  | Inhibitory effect (in words) ([2]; additive 1 mM final concentration, listed as Hg^2+): highest; also recorded: inhibited potently
[Cl][Pb][Cl] [PbCl2] |  |  | 2.7 | 
O=C(O)/C=C\C(=O)O [Maleic acid] |  | 26.2 |  | 
O=C(O)C(O)C(O)C(=O)O (stereo not drawn) [Meso-tartaric acid] |  | 5.6 |  | 
O=C[C@H](O)[C@@H](O)[C@@H](O)[C@H](O)CO [D-Galactose] | lower activity; also recorded: weakly |  |  | Relative activity (%) [1, 9]: 1.2%
OC[C@@H](O)[C@@H](O)[C@H](O)[C@@H](O)CO [D-Sorbitol] | Almost no activity; also recorded: almost no effect |  |  | Relative activity (%) [1, 9]: 0.1> %

Compound | Activity of the enzyme on the substrate (in words) ([1]; summary of Tables 1 and 2) | Inhibition (%) [2, 8] [%] | Inhibition (%) [2] [%] | further results
[Cl][Fe]([Cl])[Cl] [FeCl3] |  |  | 25.0 | 
NC(N)=O [Urea] |  | 1.9 |  | 
CCO [Ethanol] | Almost no activity; also recorded: almost no effect |  |  | Relative activity (%) [1, 9]: 0.1> %
O=S(=O)([O-])c1cc(O)c(O)c(S(=O)(=O)[O-])c1.[Na+].[Na+] [Tirone] |  |  | 2.5 | 
Acriflavine |  | 49.0 |  | 
CCN1C(=O)C=CC1=O [N-Ethylmaleimide] |  | 1.8 |  | 
O=C(O)[C@@H](O)[C@H](O)C(=O)O [D-Tartaric acid] |  | 8.5 |  | 
CoCl2 |  |  | 7.0 | 
OO [H2O2] |  |  | 1.7 | 
O=C(O)c1ccccc1 [Benzoic acid] |  |  | 0 | 
O=C(O)CC(O)C(=O)O (stereo not shown) [Malic acid] |  | 8.1 |  | 
[Cl][Ni][Cl] [NiCl2] |  |  | 16.5 | 
[Cl][Al]([Cl])[Cl] [AlCl3] |  |  | 0 | 
TritonX-100 |  | 6.2 |  | 
O=P(O)(O)O[C@H]1O[C@H](CO)[C@@H](O)[C@H](O)[C@H]1O [D-Glucose-1-phosphate] | Almost no activity; also recorded: almost no effect |  |  | Relative activity (%) [1, 9]: 0.1> %
O=C(CO)[C@@H](O)[C@H](O)[C@@H](O)CO [L-Sorbose] | Almost no activity; also recorded: almost no effect |  |  | Relative activity (%) [1, 9]: 0.1> %
O=C(O)CC(O)(CC(=O)O)C(=O)O [Citric acid] |  | 5.6 |  | 
OC[C@H]1O[C@@](CO)(O[C@H]2O[C@H](CO)[C@@H](O)[C@H](O)[C@H]2O)[C@@H](O)[C@@H]1O [Sucrose] | Almost no activity; also recorded: almost no effect |  |  | Relative activity (%) [1, 9]: 0.1> %
[Cl-].[Li+] [LiCl] |  | 0.9 |  | 
O=C(O)/C=C/C(=O)O [Fumaric acid] |  | 3.4 |  | 
[Cl-].[Na+] [NaCl] |  |  | 2.5 | 
